# Assays:
# HepG2 = experiment: MTT test for inhibition of tumor cells, HepG2; type: cell-based; conditions: 48 h
# HeLa = experiment: MTT test for inhibition of tumor cells, HeLa; type: cell-based; conditions: 48 h
# Description: HepG2, HeLa cell lines and human normal liver cells HL-7702 in a logarithmic growth period were centrifuged at 1000 rpm for 5 min, and the supernatant was discarded, the cells were suspended with a suitable amount of culture medium to adjust the cell concentration to 3.5×10^4/well, the cells were seeded in 96-well plates, and the following experimental groups were set:
# 100 μl of DMSO was added to each well, followed by shaking on a shaker for 30 min at 37° C., the absorbance (OD) was measured at 492 nm, and the MTT ratio was calculated as the OD value of drug group/OD value of negative control group.
# HL-7702 = experiment: MTT test on human normal hepatocytes HL-7702; type: cell-based; conditions: human normal hepatocytes HL-7702, MTT, 48 h
# HMEC = experiment: IC50 against human mammary epithelial cells HMEC; conditions: for toxicity on normal cell line HMEC compared with etoposide: vs etoposide
# H8 = experiment: IC50 against human cervical immortalized cells H8; conditions: for toxicity on normal cell line H8 compared with etoposide: vs etoposide
# MCF7 = experiment: IC50 against breast cancer cell MCF7; type: cell-based, human; conditions: vs etoposide
# MRC-5 = experiment: IC50 against human embryonic lung cells MRC-5; conditions: for toxicity on normal cell line MRC-5 compared with etoposide: vs etoposide
# A549 = experiment: IC50 against human lung cancer cell A549; type: cell-based; conditions: for antitumor activity on A549 compared with etoposide: vs etoposide
Molecule,IC50 (HepG2),IC50 (HeLa),IC50 (HL-7702),also measured
"4β-S-(3-phenyl-1,3,4-thiadiazol-2(3H)thione potassium salt-5)-4′-demethylepipodophyllotoxin [Compound 26]",5.7 ± 0.33 µM,48.49 ± 0.38 µM,–,–
4β-S-(5-phenylbenzoxazol-2)-4′-demethylepipodophyllotoxin [Compound 12],10.2 ± 0.46 µM,> 100 µM,56.8 ± 1.32 µM,–
4β-S-(6-chlorobenzoxazol-2)-4′-demethylepipodophyllotoxin [Compound 16],22.3 ± 1.46 µM,32.3 ± 1.87 µM,68.3 ± 4.5 µM,–
"COc1cc(C2c3cc4c(cc3C(O)C3COC(=O)C23)OCO4)cc(OC)c1O (centres unmarked) [4′-Demethylepipodophyllotoxin, 4′-demethylepipodophyllotoxin, reference compound]",49.32 ± 0.38 µM,63.09 ± 0.49 µM,52.9 ± 0.85 µM,–
"COc1cc([C@@H]2c3cc4c(cc3[C@@H](Sc3ccc(F)cc3)[C@H]3COC(=O)[C@H]23)OCO4)cc(OC)c1O [Compound 6, 4β-S-(4-fluorobenzene-1)-4′-demethylepipodophyllotoxin]",4.24 ± 0.97 µM,55.28 ± 0.21 µM,51 ± 0.88 µM,–
"COc1cc([C@@H]2c3cc4c(cc3[C@@H](Sc3nc5cc(F)ccc5s3)[C@H]3COC(=O)[C@H]23)OCO4)cc(OC)c1O [Compound 8, 4β-S-(5-fluorobenzothiazol-2)-4′-demethylepipodophyllotoxin]",1.49 ± 0.12 µM,2.3 ± 0.12 µM,966.2 ± 7.31 µM,toxicity on normal cell line HMEC compared with etoposide (HMEC): significantly lower; toxicity on normal cell line H8 compared with etoposide (H8): significantly lower; antitumor activity on MCF7 compared with etoposide (MCF7): significantly improved; toxicity on normal cell line MRC-5 compared with etoposide (MRC-5): significantly lower; antitumor activity on A549 compared with etoposide (A549): significantly improved
"COc1cc(C2c3cc4c(cc3C(Sc3nc5cc(F)ccc5o3)C3COC(=O)C23)OCO4)cc(OC)c1OC (stereo not drawn) [Compound 9, 4β-S-(5-Fluorobenzoxazol-2)-podophyllotoxin]",–,–,> 1000 µM,–
"COc1cc([C@@H]2c3cc4c(cc3[C@@H](Sc3nc5cc(F)ccc5o3)[C@H]3COC(=O)[C@H]23)OCO4)cc(OC)c1O [Compound 10, 4β-S-(5-fluorobenzoxazol-2)-4′-demethylepipodophyllotoxin]",1.55 ± 0.29 µM,1.49 ± 0.14 µM,2000 ± 12.8 µM,"IC50 (HMEC; read-out: IC50 HMEC, normal cell line, human mammary epithelial cells HMEC): 323.4 ± 3.21 µM; toxicity on normal cell line HMEC compared with etoposide (HMEC): significantly lower; IC50 (H8; read-out: IC50 H8, normal cell line, human cervical immortalized cells H8): 518.9 ± 1.9 µM; toxicity on normal cell line H8 compared with etoposide (H8): significantly lower; antitumor activity on MCF7 compared with etoposide (MCF7): significantly improved; IC50 (MRC-5; read-out: IC50 MRC-5, normal cell line, human embryonic lung cells MRC-5): 348.9 ± 3.1 µM; toxicity on normal cell line MRC-5 compared with etoposide (MRC-5): significantly lower; IC50 (A549; human lung cancer cell A549): 2.34 ± 0.16 µM; antitumor activity on A549 compared with etoposide (A549): significantly improved"
"COc1cc([C@@H]2c3cc4c(cc3[C@@H](Sc3ccc5ccccc5c3)[C@H]3COC(=O)[C@H]23)OCO4)cc(OC)c1O [Compound 20, 4β-S-(naphthalen-2)-4′-demethylepipodophyllotoxin]",6.02 ± 0.25 µM,5.54 ± 0.3 µM,76.8 ± 2.11 µM,–
"COc1cc([C@@H]2c3cc4c(cc3[C@@H](Sc3nc5ncccc5[nH]3)[C@H]3COC(=O)[C@H]23)OCO4)cc(OC)c1O [Compound 22, 4β-S-(1H-imidazo[4,5-B]pyridin-2)-4′-demethylepipodophyllotoxin]",8.31 ± 0.43 µM,> 100 µM,33.5 ± 3.25 µM,–
"COc1cc([C@@H]2c3cc4c(cc3[C@@H](Sc3nnnn3-c3ccccc3)[C@H]3COC(=O)[C@H]23)OCO4)cc(OC)c1O [Compound 24, 4β-S-(1-phenyltetrazol-5)-4′-demethylepipodophyllotoxin]",59.69 ± 0.31 µM,9.73 ± 0.11 µM,71 ± 3.67 µM,–

# Reference: patent publication US20200216449A1, “4-Sulfur Substituted Podophyllotoxin Derivative and Preparation Method Therefor and Use Thereof” (priority 2017, published 2020)
